Patent EP0372582A2, “6-Aminoalkyl carbapenems” (Bristol-Myers Squibb Company, priority 1988, dated 1990)
Like-named read-outs stand apart in the source and are kept apart here. One block for each compound: values may come before it.

Tests used:
[1] = Chemical stability in aqueous solution (half-life); type: physicochemical
Procedure: Chemical stability in aqueous solution at pH 7.4 and pH 2.0 is reported as half-life (t1/2). These values are determined by interpolation from a graph of concentration of test substance remaining in solution after storage under selected conditions for various periods of time.

[2] = Blood concentration parameters after administration to mice; type: in vivo; details: for AUC / half-life / Cmax: mouse, mice; for half-life: blood half-life
Source text: […] "Cmax" is the maximum concentration achieved, "t1/2" is the half-life or time for half of the absorbed material to disappear from the blood stream.

E. coli = assay: Protective dose (PD50) in infected animals; type: in vivo, mice; parameters: unit not given here
Source text: The PD₅₀ values are protective doses, or the dose of test compound which secures survival of 50% of the animals of a test group, usually mice, during a designated period of time after being infected with an inoculum of infectious organism which will result in death of all inoculated untreated animals during that test period.

Staph. serum = assay: M.I.C., tube dilution method in Nutrient Broth; type: cell-based
Procedure: (§1) The following procedures illustrate the application of the process of this invention to the preparation of a variety of compounds of Formula V. In many instances, data illustrating the biological activity of the substances as antibiotics are presented. […] It is determined by interpolation from a graph of concentration versus number of cells following exposure of the organism to the test compound under growth conditions. Another parameter such as optical density which is proportional to the cell count may be used. In some instances MIC₉₀ values are also given. The latter refers to 90% growth inhibition.

Ent. clo. A9656 = assay: M.I.C., tube dilution method in Nutrient Broth; type: cell-based; details: unit assumed
Procedure: as §1

Str. faec. A20688 = assay: M.I.C., tube dilution method in Nutrient Broth; type: cell-based; details: unit assumed
Procedure: as §1

Staph. aur. A9537 = assay: M.I.C., tube dilution method in Nutrient Broth; type: cell-based; details: unit assumed
Procedure: as §1

P. vul. A21559 = assay: M.I.C., tube dilution method in Nutrient Broth; type: cell-based; details: unit assumed
Procedure: as §1

P. mir. A9900 = assay: M.I.C., tube dilution method in Nutrient Broth; type: cell-based; details: unit assumed
Procedure: as §1

E. coli A20341 = assay: M.I.C., tube dilution method in Nutrient Broth; type: cell-based; details: unit assumed
Procedure: as §1

Ser. mars. A20019 = assay: M.I.C., tube dilution method in Nutrient Broth; type: cell-based; details: unit assumed
Procedure: as §1

Ps. aeru. A9843 = assay: M.I.C., tube dilution method in Nutrient Broth; type: cell-based; details: unit assumed
Procedure: as §1

Staph aur. Pen+ = assay: M.I.C., tube dilution method in Nutrient Broth; type: cell-based; details: unit assumed
Procedure: as §1

Staph aur. MR = assay: M.I.C., tube dilution method in Nutrient Broth; type: cell-based; details: unit assumed
Procedure: as §1

K. pneu. A20468 = assay: M.I.C., tube dilution method in Nutrient Broth; type: cell-based; details: unit assumed
Procedure: as §1

Ent. clo. A9659 = assay: M.I.C., tube dilution method in Nutrient Broth; type: cell-based; details: unit assumed
Procedure: as §1

Str. pneu. A9585 = assay: M.I.C., tube dilution method in Nutrient Broth; type: cell-based; details: unit assumed
Procedure: as §1

E. coli A15119 = assay: M.I.C., tube dilution method in Nutrient Broth; type: cell-based; details: unit assumed
Procedure: as §1

K. pneu. A9664 = assay: M.I.C., tube dilution method in Nutrient Broth; type: cell-based; details: unit assumed
Procedure: as §1

P. rett. A22424 = assay: M.I.C., tube dilution method in Nutrient Broth; type: cell-based; details: unit assumed
Procedure: as §1

P. morg. A15153 = assay: M.I.C., tube dilution method in Nutrient Broth; type: cell-based; details: unit assumed
Procedure: as §1

Str. pyo. A9604 = assay: M.I.C., tube dilution method in Nutrient Broth; type: cell-based; details: unit assumed
Procedure: as §1

[3] = 37°C, pH 2.0 citric acid buffer, by hplc, read-out: t1/2, pH 2
[4] = 37°C, pH 7.4 phosphate buffer, by uv, read-out: t1/2, pH 7.4 (converted)
[5] = phosphate buffer, pH 7.4, 37°C, pH 7.4 phosphate buffer, by uv, read-out: t1/2, pH 7.4 (converted)
[6] = citric acid buffer, pH 2, 37°C, pH 2.0 citric acid buffer, by hplc, read-out: t1/2, pH 2
[7] = blood, PO, 50 mg/kg, read-out: Cmax, PO/50

Compound: C[C@@H](N)C1C(=O)N2C(C(=O)O)=C(SCc3ccccc3)[C@H](C)[C@H]12 (stereo in doubt) [Procedure 12, (5S,6S) 6-(1′R-Aminoethyl)-3-benzylthio-4R-methyl-7-oxo-1-azabicyclo[3.2.0]hept-2-ene-2-carboxylic Acid]
half-life [1, 3]: 2.4 h
half-life [1, 4]: 4.1 h
AUC ([2]; in vivo, PO, 50 mg/kg): 11000 ng·h/mL
half-life ([2]; in vivo, PO, 50 mg/kg): 0.217 h
Cmax ([2]; in vivo, PO, 50 mg/kg, read-out: Cmax, PO/50): 33000 ng/mL

half-life [1, 5]: 160 h
Compound: CSC1=C(C(=O)O)N2C(=O)[C@H]([C@H](C)O)[C@H]2[C@H]1C [Procedure 4, (5S,6S) Potassium 6-(1′S-hydroxyethyl)-4R-methyl-3-methylthio-7-oxo-1-azabicyclo[3.2.0]hept-2-ene-2-carboxylate]

half-life [1, 6]: 2.8 h
half-life [1, 5]: 4.3 h
Compound: CCSC1=C(C(=O)O)N2C(=O)[C@H]([C@@H](C)N)[C@H]2[C@H]1C [Procedure 7, (5S,6R) 6-(1′R-Aminoethyl)-3-ethylthio-4R-methyl-7-oxo-1-azabicyclo[3.2.0]hept-2-ene-2-carboxylic Acid]

half-life [1, 6]: 3.53 h
half-life ([1]; phosphate buffer, pH 7.4, 22°C, pH 7.4 phosphate buffer, read-out: half-life (converted)): 39 h
half-life [1, 5]: 6.8 h
AUC ([2]; blood, PO, 50 mg/kg): 5000 ng·h/mL
Cmax [2, 7]: 9000 ng/mL
half-life ([2]; PO, 50 mg/kg): 0.3 h
Compound: CSC1=C(C(=O)O)N2C(=O)[C@H]([C@@H](C)N)[C@H]2[C@H]1C [Procedure 9, (5S,6R) 6-(1′R-Aminoethyl)-4R-methyl-3-methylthio-7-oxo-1-azabicyclo[3.2.0]hept-2-ene-2-carboxylic Acid]
PD50, E. coli (E. coli; IM): 25.00
PD50, E. coli (E. coli; PO): 12.50

half-life [1, 6]: 2.4 h
half-life [1, 5]: 3 h
U.R. ([2]; listed after the PO/50 lines, abbreviation not defined): 5
half-life ([2]; 20 mg/kg, IM/20): 0.2 h
AUC ([2]; blood, 20 mg/kg, IM/20): 7000 ng·h/mL
Cmax ([2]; blood, 20 mg/kg, IM/20, read-out: Cmax, IM/20): 18000 ng/mL
AUC ([2]; blood, PO, 50 mg/kg): 21000 ng·h/mL
Cmax [2, 7]: 25000 ng/mL
half-life ([2]; PO, 50 mg/kg): 0.383 h
Compound: C[C@@H](N)[C@H]1C(=O)N2C(C(=O)O)=C(SCc3cccnc3)[C@H](C)[C@H]12 [Procedure 21, (5S,6R)-6-(1′R-Aminoethyl)-4R-methyl-3-[(pyridin-3-yl)methyl-thio]-7-oxo-1-azabicyclo[3,2,0]hept-2-ene-2-carboxylic Acid]
PD50, E. coli (E. coli; PO): 8.10

Compound: C[C@@H](N)[C@H]1C(=O)N2C(C(=O)O)=C(SCCF)[C@H](C)[C@H]12 [Procedure 23]
M.I.C. Staph. serum (Staph. serum): 16.000

half-life [1, 6]: 2.93 h
half-life [1, 5]: 2.8 h
Compound: C[C@@H](N)[C@H]1C(=O)N2C(C(=O)O)=C(SCCC#N)[C@H](C)[C@H]12 [Procedure 26, (5S,6R)-6-(1′R-Aminoethyl)-3-(2-cyanoethylthio)-4R-methyl-7-oxo-1-azabicyclo[3.2.0]hept-2-ene-2-carboxylic Acid]

Compound: C[C@H](N)[C@H]1C(=O)N2C(C(=O)O)=C(SCCC#N)[C@H](C)[C@H]12 [Procedure 35, (5S,6R) 6-(1′S-Aminoethyl)-3-(2-cyanoethylthio)-4R-methyl-7-oxo-1-azabicyclo[3.2.0]hept-2-ene-2-carboxylic Acid]
half-life [1, 3]: 0.583 h
half-life [1, 4]: 1.5 h

Compound: CSC1=C(C(=O)[O-])N2C(=O)[C@H]([C@@H](C)[N+](C)(C)C)[C@H]2[C@H]1C [Procedure 36]
M.I.C. Staph. serum (Staph. serum): 63.000

Compound: CSC1=C(C(=O)O)N2C(=O)[C@H]([C@@H](C)NC(=O)CNC(=O)[C@@H](N)CC(C)C)[C@H]2[C@H]1C [Procedure 37]
M.I.C. Staph. serum (Staph. serum): 16.000

half-life [1, 6]: < 0.0833 h
half-life [1, 5]: 29 h
Cmax [2, 7]: 2000 ng/mL
Compound: CSC1=C(C(=O)O)N2C(=O)[C@H]([C@@H](C)NC(=O)CNC(=O)[C@H](C)N)[C@H]2[C@H]1C [Procedure 38, (5S,6R) 6-(1′R-(L-alanylglycyl)aminoethyl)-4R-methyl-3-methylthio-7-oxo-1-azabicyclo[3.2.0]hept-2-ene--2-carboxylic Acid]
PD50, E. coli (E. coli; IM): 12.50
PD50, E. coli (E. coli; PO): 25.00

half-life [1, 6]: < 0.0833 h
half-life [1, 5]: 46 h
Cmax [2, 7]: 2000 ng/mL
Compound: CSC1=C(C(=O)O)N2C(=O)[C@H]([C@@H](C)NC(=O)[C@H](CC(C)C)NC(=O)[C@H](C)N)[C@H]2[C@H]1C [Procedure 39, (5S,6R)-6-{1′R-(L-Alanyl-L-leucyl)aminoethyl}-4R-methyl-3-methylthio-7-oxo-1-azabicyclo[3.2.0]hept-2-ene-2-carboxylic Acid]
PD50, E. coli (E. coli; IM): 25.00
PD50, E. coli (E. coli; PO): 25.00

Compound: CC[C@H]1C(SC)=C(C(=O)O)N2C(=O)[C@H]([C@H](C)N)[C@@H]12 [Procedure 49, (5S,6R) 6-(1′S-Aminoethyl)-4R-ethyl-3-methylthio-7-oxo-1-azabicyclo[3.2.0]hept-2-ene-2-carboxylic Acid]
M.I.C. Staph. serum (Staph. serum): 63.000

Compound: CC[C@H]1C(SCc2cn(C)nn2)=C(C(=O)O)N2C(=O)[C@H]([C@H](C)N)[C@@H]12 [Procedure 52, (5S,6R) 6-(1′S-Aminoethyl)-4R-ethyl-3-[(1-metyl-1,2,3-triazol-4-yl)-methylthio]-7-oxo-1-azabicyclo[3.2.0]hept-2-ene-2-carboxylate]
M.I.C. Ent. clo. A9656 (Ent. clo. A9656): 1 µg/mL
M.I.C. Str. faec. A20688 (Str. faec. A20688): 125 µg/mL
M.I.C. Staph. aur. A9537 (Staph. aur. A9537): 32 µg/mL
M.I.C. P. vul. A21559 (P. vul. A21559): 0.25 µg/mL
M.I.C. P. mir. A9900 (P. mir. A9900): 0.25 µg/mL
M.I.C. Staph. serum (Staph. serum; unit assumed): 63 µg/mL
M.I.C. E. coli A20341 (E. coli A20341): 0.5 µg/mL
M.I.C. Ser. mars. A20019 (Ser. mars. A20019): 1 µg/mL
M.I.C. Ps. aeru. A9843 (Ps. aeru. A9843): 32 µg/mL
M.I.C. Staph aur. Pen+ (Staph aur. Pen+): 125 µg/mL
M.I.C. Staph aur. MR (Staph aur. MR): 125 µg/mL
M.I.C. K. pneu. A20468 (K. pneu. A20468): 2 µg/mL
M.I.C. Ent. clo. A9659 (Ent. clo. A9659): 2 µg/mL
M.I.C. Str. pneu. A9585 (Str. pneu. A9585): 8 µg/mL
M.I.C. E. coli A15119 (E. coli A15119): 0.5 µg/mL
M.I.C. K. pneu. A9664 (K. pneu. A9664): 1 µg/mL
M.I.C. P. rett. A22424 (P. rett. A22424): 4 µg/mL
M.I.C. P. morg. A15153 (P. morg. A15153): 0.5 µg/mL
M.I.C. Str. pyo. A9604 (Str. pyo. A9604): 16 µg/mL

Compound: CSC1=C(C(=O)O)N2C(=O)[C@H]([C@H](C)N)[C@H]2[C@H]1C [Procedure 57, (5S,6R) 6-(1S-Aminoethyl)-4R-methyl-3-methylthio-7-oxo-1-1-azabicyclo[3.2.0]hept-2-ene-2-carboxylate]
M.I.C. Staph. serum (Staph. serum): 16.000

Compound: C[C@H](N)[C@H]1C(=O)N2C(C(=O)O)=C(SCc3cccnc3)[C@H](C)[C@H]12 [Procedure 58]
M.I.C. Staph. serum (Staph. serum): 4.000

Compound: CSC1=C(C(=O)[O-])N2C(=O)[C@H]([C@H](C)[N+](C)(C)C)[C@H]2[C@H]1C [Procedure 59, (5S,6R) 6-(1′S-N-Trimethylammonium-ethyl)-4R-methyl-3-methylthio-7-oxo-1-azabicyclo[3.2.0]hept-2-ene-2-carboxylate]
M.I.C. Staph. serum (Staph. serum): 8.000

Compound: CCSC1=C(C(=O)O)N2C(=O)[C@H]([C@H](C)N)[C@H]2[C@H]1C [Procedure 60, (5S,6R) 6-(1′S-aminoethyl)-3-ethylthio-4R-methyl-7-oxo-1-azabicyclo[3.2.0]hept-2-ene-2-carboxylic acid]
M.I.C. Staph. serum (Staph. serum): 8.000

Compound: CSC1=C(C(=O)O)N2C(=O)[C@H]([C@H](C)NC(=O)CNC(=O)[C@@H](N)CC(C)C)[C@H]2[C@H]1C [Procedure 61, (5S,6R) 6-(1′S-(L-Leucylglycyl)aminoethyl)-4R-methyl-3-methylthio-7-oxo-1-azabicyclo[3.2.0]hept-2-ene-2-carboxylic Acid]
M.I.C. Staph. serum (Staph. serum): 63.000
